For experiment [1], the system named is β-catenin signalling. The experiment in a line: Activation of β-catenin signalling in treated HSPCs (RT-PCR of Axin2, nuclear translocation of β-catenin). In kind it is cell-based, mouse. The source says: According to Treatment A, activation of the Wnt/β-catenin signalling pathway is, at least partially, provided by the implanted cells having their Wnt/β-catenin signalling pathway activated and being selected from the group consisting of a hematopoietic stem cell, a progenitor cell, and a mesenchymal stem cell. The subject to be treated may also have activated the Wnt/β-catenin signalling pathway after retinal damage or injury. In general, the Wnt/β-catenin signalling pathway is activated when the target genes are transcribed; by illustrative, activation of the Wnt/β-catenin signalling pathway may be confirmed by conventional techniques, for example, by analyzing the expression of the target genes, e.g., Axin2, by means known by the skilled person in the art to analyze the expression of genes, such as, for example, RT-PCR (reverse transcription-polymerase chain reaction), or by detection of β-catenin translocation in the nuclei of the cells by conventional techniques, such as, for example, by immunostaining, or by detecting the phosphorylation of Dishevelled or the phosphorylation of the LRP tail, etc.
The stem cells (SCs) were left non-treated or were pretreated with 100 ng/ml Wnt3a or 1 μM BIO, for 24 h, and finally 5×10^5 cells were injected intravitreally into the eyes of the anaesthetised mice. […]

Experiment [2] deals with Nanog-GFP transgene. The experiment is described as follows: In-vivo reprogramming of retinal neurons after fusion, Nanog-GFP-puro mice. The note with it: for GFP-positive cells after transplantation of pretreated ESCs: ESCs pretreated before transplantation, NMDA-injured eyes. Also noted: species or system mouse. As for the experimental part:
(§1) Mice at the age of 3 months were anaesthetised by injection of ketamine: metomidine (80 mg/kg: 1.0 mg/kg, intraperitoneal (i.p.)). To induce retinal damage, the animals were treated intravitreally with 2 μl of 20 mM N-methyl-D-aspartate (NMDA) (total 40 nmol; Sigma) for 24 h [Timmers et al., Mol Vis 7, 131-137 (2001)]. Control eyes received 2 μl PBS. For the BrdU incorporation assays, the mice received intraperitoneal (i.p.) BrdU administration of 50 mg/kg body weight.
(§2) The stem cells (SCs) were left non-treated or were pretreated with 100 ng/ml Wnt3a or 1 μM BIO, for 24 h, and finally 5×10^5 cells were injected intravitreally into the eyes of the anaesthetised mice. The mice were sacrificed by cervical dislocation, and their eyeballs were enucleated for histological analyses.
(§3) Tissues were fixed by immersion in 4% paraformaldehyde overnight, and then embedded in OCT compound (Tissue-Tek). Horizontal serial sections of 10 μm thickness were processed for immunohistochemistry, and visualisation of Nanog-GFP and Rosa26-YFP fluorescence was performed by fluorescent microscopy.
(§4) Percentages of GFP and YFP positive cells were evaluated counterstaining the tissue sections with DAPI (Vectashield, Vector Laboratories, Burlingame, Calif., USA), and they were photographed using either an Axioplan microscope (Zeiss) or a Leica laser confocal microscope system.
(§5) The numbers of immunoreactive or of Nanog-GFP- and -YFP-positive cells within three different retinal areas (40× field) were counted in individual sections. A total of ten serial sections were examined for each eye, from at least three different mice. For statistical analysis, the data were expressed as means±SEM, as pooled from at least three independent experiments, each carried out in duplicate. The experiments were performed using at least three different mice. Differences were examined using the unpaired Student t-test.

Experiment [3] has as its system Nestin-CRE transgene. The experiment is described as follows: Endogenous BM cell fusion-mediated reprogramming induced by intravitreal BIO in Nestin-Cre mice with BM^R26Y. In kind it is in vivo, mouse. Conditions: 24 h. How it is done: BM transplantation was conducted as previously reported with minor modifications. The BM of 4- to 6-week-old R26Y or Nestin-Cre recipient mice was reconstituted with BM cells from the tibias and femurs of RFP/CRE or R26Y transgenic mice respectively. BM cells (1×10^7 cells) were injected intravenously into the recipients 3 hours after irradiation with γ-rays (9 Gy). The eyes of the recipients were protected with lead shields to prevent radiation-induced damage (radiation retinopathy). Four weeks after transplantation, the peripheral blood of chimeric mice was extracted from the tail vein, and the reconstituted BM was assessed.
For fluoresceine immunostaining, the primary antibodies used were: anti-Nanog (1:200, R&D), anti-Oct4 (1:100, AbCam), anti-Nestin (1:300, Abcam), anti-GATA4 (1:500, Abcam), anti-Otx2 (1:200, Abcam), anti-Noggin (1:200, Abcam), anti-Hand1 (1:400, Abcam), anti-Tuj-1 (1:100, Abcam), anti-Thy1.1 (1:100, Abcam), anti-syntaxin (1:50, Sigma), anti-glutamine synthetase (Sigma, 1:100) anti-Annexin V (1:200, Abcam), anti-Ki67 (Sigma, 1.100) and anti-BrdU (1:300, Sigma). The secondary antibodies used were: anti-mouse IgG and anti-rabbit IgG antibodies conjugated with Alexa Fluor 488, Alexa Fluor 546 or Alexa Fluor 633 (1:1000; Molecular Probes, Invitrogen).
as §5

In experiment [4] the test system is retinal neurons. The experiment is described as follows: Damage-dependent cell fusion in vivo after intravitreal transplantation in R26Y eyes. Also noted: species or system mouse. The note with it: NMDA-damaged eyes of R26Y mice. How it is done: as §1
Retinal stem and progenitor cells (RSPCs) were isolated from the ciliary margin of adult Cre mice as previously described [Sanges et al., Proc Natl Acad Sci USA 103, 17366-17371 (2006)]. […]
as §3, §4
The numbers of immunoreactive or of Nanog-GFP- and -YFP-positive cells within three different retinal areas (40× field) were counted in individual sections. […]

Experiment [5] concerns neural progenitor cells. The note with it: cited from earlier work; for reprogramming of neural precursor cells after cell fusion: periodic activation of the Wnt/β-catenin pathway in ESCs.
The test system of experiment [6] is human GSK-3. The note with it: cited from earlier work.
In experiment [7] the test system is β-catenin. The experiment in a line: β-catenin immunofluorescence in retinal sections of NMDA-treated eyes. In kind it is in vivo, mouse. Conditions: NMDA-damaged eyes. As for the experimental part: FIG. 12. Analysis of reprogramming of retinal neurons after fusion. (A) Immunofluorescence staining using an anti β-catenin antibody (red) was performed on sections from eyes treated either with NMDA, with both NMDA and DKK1 or untreated as control. The expression and nuclear accumulation of β-catenin in retinal cells detected in NMDA-damaged eyes (red arrows) is reduced after treatment with DKK1. Scale bar: 20 μm. (B) Schematic representation of in-vivo reprogramming experimental plan. Red-labelled SPCs either non-treated (control), or treated for 24 h with BIO were injected in NMDA-damaged or undamaged eyes of Nanog-GFP-Puro recipient mice. The expression of GFP in reprogrammed hybrids was analysed one day after injection. […] Nuclei were counterstained with DAPI.
To assess the role of activation of the endogenous Wnt/β-catenin signalling pathway in the reprogramming of retinal neurons, in both of these mouse models, DKK1 was also injected immediately after NMDA injection; DKK1 is an inhibitor of the Wnt/β-catenin pathway [Osakada et al. (2007) cited supra, FIG. 12A]. HSPCs were transplanted after 24 h, and mice were sacrificed 24 h later.

Experiment [8] deals with Nestin-CRE transgene. The experiment in a line: In-vivo reprogramming of retinal neurons after fusion, Nestin-CRE mice. More on the design: species or system mouse. Conditions: injected immediately after NMDA, HSPCs after 24 h. As for the experimental part: as §1, §2, §3
Percentages of GFP and YFP positive cells were evaluated counterstaining the tissue sections with DAPI (Vectashield, Vector Laboratories, Burlingame, Calif., USA), and they were photographed using either an Axioplan microscope (Zeiss) or a Leica laser confocal microscope system. […]

In the case of `O=C1Nc2cc(Br)ccc2/C1=C1/Nc2ccccc2/C1=N\O` [BIO, 6-bromoindirubin-3'-oxime], the “β-catenin signalling in HSPCs” value in experiment [1] was “activates β-catenin signalling”. Moreover, the “GFP-positive cells after transplantation of pretreated ESCs” value in experiment [2] is listed as “strikingly increased”. Also, in experiment [3] (NMDA+BIO intravitreal), the “YFP-positive hybrids Annexin-V positive” value is on record as 1%, the “YFP-positive hybrids positive for Ki67” value is reported as “About 8%”, the “YFP-positive hybrids positive for Nanog” value stood at 70% and the “YFP-positive hybrids positive for Oct4” value came to 50%. Also, the “YFP-positive cells in the gcl and inl” value in experiment [3] (intravitreal with NMDA) is listed as “observed”. In experiment [4], the “effect of pre-treatment on fusion efficiency of HSPCs, ESCs or RSPCs” value is on record as “did not enhance the fusion efficiency”. For the same molecule, in experiment [5] (in vitro), the “fusion efficiency of ESCs with neural progenitor cells” value is recorded as “does not increase the fusion efficiency”. For the same molecule, in experiment [5], the “reprogramming of neural precursor cells after cell fusion” value was “strongly enhances”.
`Nc1nc(NCCNc2ncc(-n3ccnc3)c(-c3ccc(Cl)cc3Cl)n2)ccc1[N+](=O)[O-]` [CHIR 98014, 6-pyridinediamine, N6-[2-[[4-(2,4-dichlorophenyl)-5-(1H-imidazol-1-yl)-2-pyrimidinyl]amino]ethyl]-3-nitro-]: in experiment [6], the “inhibition of human GSK-3” value was “potently”.
In the case of `Cc1c[nH]c(-c2cnc(NCCNc3ccc(C#N)cn3)nc2-c2ccc(Cl)cc2Cl)n1` [CHIR 99021, 6-{2-[4-(2,4-dichloro-phenyl)-5-(4-methyl-1H-imidazol-2-yl)-pyrimidin-2-ylamino]-ethylamino}-nicotinonitrile], in experiment [6], the “inhibition of human GSK-3” value was “potently”.

B1: DKK1: an inhibitor of the Wnt/β-catenin pathway (protein, UniProt O94907 32-266, looked up)
Dickkopf-related protein 1: TLNSVLNSNAIKNLPPPLGGAAGHPGSAVSAAPGILYPGGNKYQTIDNYQPYPCAEDEECGTDEYCASPTRGGDAGVQICLACRKRRKRCMRHAMCCPGNYCKNGICVSSDQNHFRGEIEETITESFGNDHSTLDGYSRRTTLSSKMYHTKGQEGSVCLRSSDCASGLCCARHFWSKICKPVLKEGQVCTKHRRKGSHGLEIFQRCYCGEGLSCRIQKDHHQASNSSRLHTCQRH
Regarding B1, the “reprogramming of neuron-HSPC hybrids” value in experiment [2] (injected immediately after NMDA, HSPCs after 24 h, Nanog-GFP-puro mice) is listed as “almost completely blocked”; in experiment [8], “almost completely blocked”. In addition, the “expression and nuclear accumulation of β-catenin in retinal cells” value in experiment [7] is “reduced”.

B2: Wnt3a: Wnt protein isoform, Wnt/β-catenin signalling pathway activator (protein, UniProt P56704 19-352, looked up)
Protein Wnt-3a: SYPIWWSLAVGPQYSSLGSQPILCASIPGLVPKQLRFCRNYVEIMPSVAEGIKIGIQECQHQFRGRRWNCTTVHDSLAIFGPVLDKATRESAFVHAIASAGVAFAVTRSCAEGTAAICGCSSRHQGSPGKGWKWGGCSEDIEFGGMVSREFADARENRPDARSAMNRHNNEAGRQAIASHMHLKCKCHGLSGSCEVKTCWWSQPDFRAIGDFLKDKYDSASEMVVEKHRESRGWVETLRPRYTYFKVPTERDLVYYEASPNFCEPNPETGSFGTRDRTCNVSSHGIDGCDLLCCGRGHNARAERRREKCRCVFHWCCYVSCQECTRVYDVHTCK
Turning to B2, in experiment [2], the “GFP-positive cells after transplantation of pretreated ESCs” value is “strikingly increased”. In addition, the “reprogramming of neural precursor cells after cell fusion” value in experiment [5] is “strongly enhances”.
